The text below walks through data of ChEMBL document CHEMBL2150939, “Synthesis and cytotoxicity of novel ursolic acid derivatives containing an acyl piperazine moiety” (Eur J Med Chem, 2012).

Activity calls are given as the source filed them. The calls are words filed in the database; no cut-off is given here. Some results are limits rather than exact numbers.

In series [1] the test system is MGC-803. Nature of the series: Antiproliferative activity against human MGC803 cells after 72 hrs by MTT assay. Conditions: MGC-803, 72 h. It is filed as functional, cell-based.
For series [2], the system named is MGC-803. Nature of the series: Induction of apoptosis in human MGC803 cells assessed as DNA fragmentation at 2.5 to 10 uM after 24 hrs by TUNEL assay. The series is classed as functional, cell-based.
In series [3] the test system is MGC-803. Nature of the series: Induction of apoptosis in human MGC803 cells assessed as early apoptotic cells at 5 uM after 24 hrs by acridine orange/ethidium bromide staining. The series is classed as functional, cell-based.
Series [4] concerns MGC-803. Nature of the series: Induction of apoptosis in human MGC803 cells assessed as cell budding at 5 uM at 24 hrs by acridine orange/ethidium bromide staining.
For series [5], the system named is MGC-803. Nature of the series: Induction of apoptosis in human MGC803 cells assessed as condensed chromatin at 5 uM after 12 to 48 hrs by Hoechst 33258 staining. The series is classed as functional, cell-based.
Series [6] has as its system MGC-803. Nature of the series: Induction of apoptosis in human MGC803 cells at 10 uM by annexinV/FITC-PI staining-based flow cytometric analysis. Particulars: TDE = time-dependent effect. It is filed as functional, cell-based.
The test system of series [7] is MGC-803. Nature of the series: Induction of apoptosis in human MGC803 cells assessed as early and late apoptotic level at 10 uM after 36 hrs by annexinV/FITC-PI staining-based flow cytometric analysis. It is filed as functional.
For series [8], the system named is MGC-803. Nature of the series: Induction of apoptosis in human MGC803 cells assessed as pyknosis at 5 uM after 12 to 48 hrs by acridine orange/ethidium bromide staining. It is filed as functional, cell-based.
The subject of series [9] is Bcap37. Nature of the series: Growth inhibition of human Bcap37 cells at 10 uM after 72 hrs by MTT assay. The series is classed as functional. Conditions: Bcap37, 72 h, read-out: GI.
Series [10] can be described thus: Growth inhibition of mouse NIH/3T3 cells at 10 uM after 72 hrs by MTT assay. Conditions: read-out: GI. It is filed as cell-based, NIH3T3.
Series [11] deals with MGC-803. Nature of the series: Induction of apoptosis in human MGC803 cells assessed as cell budding at 5 uM up to 48 hrs by acridine orange/ethidium bromide staining. The series is classed as functional, cell-based.
The subject of series [12] is MGC-803. Nature of the series: Induction of apoptosis in human MGC803 cells assessed as membrane blebbing at 5 uM after 12 to 48 hrs by acridine orange/ethidium bromide staining. The series is classed as functional, cell-based.
The test system of series [13] is MGC-803. Nature of the series: Induction of apoptosis in human MGC803 cells assessed as early and late apoptotic level at 10 uM after 24 hrs by annexinV/FITC-PI staining-based flow cytometric analysis. The series is classed as functional.
For series [14], the system named is MGC-803. Nature of the series: Growth inhibition of human MGC803 cells at 10 uM after 72 hrs by MTT assay. The series is classed as functional. Particulars: MGC-803, 72 h, read-out: GI.
Series [15] has as its system MGC-803. Nature of the series: Induction of apoptosis in human MGC803 cells assessed as late apoptotic cells at 5 uM after 48 hrs by acridine orange/ethidium bromide staining. It is filed as functional, cell-based.
Series [16] relates to Bcap37. Nature of the series: Antiproliferative activity against human Bcap37 cells after 72 hrs by MTT assay. Particulars: Bcap37, 72 h, read-out: IC50. The series is classed as functional, cell-based.
Series [17] relates to MGC-803. Nature of the series: Induction of apoptosis in human MGC803 cells assessed as early and late apoptotic level at 10 uM after 12 hrs by annexinV/FITC-PI staining-based flow cytometric analysis. It is filed as functional.
Series [18] deals with MGC-803. Nature of the series: Induction of apoptosis in human MGC803 cells at 10 uM after 48 hrs by acridine orange/ethidium bromide staining. It is filed as functional, cell-based.
For series [19], the system named is MGC-803. Nature of the series: Induction of apoptosis in human MGC803 cells assessed as DNA fragmentation at 10 uM after 24 hrs by TUNEL assay. The series is classed as functional, cell-based.
Series [20] relates to MGC-803. Nature of the series: Induction of apoptosis in human MGC803 cells assessed as condensed chromatin at 10 uM after 48 hrs by Hoechst 33258 staining. The series is classed as functional, cell-based.
Series [21] relates to MGC-803. Nature of the series: Induction of apoptosis in human MGC803 cells assessed as membrane blebbing at 10 uM after 48 hrs by acridine orange/ethidium bromide staining. It is filed as functional, cell-based.
The subject of series [22] is MGC-803. Nature of the series: Induction of apoptosis in human MGC803 cells assessed as pyknosis at 10 uM after 48 hrs by acridine orange/ethidium bromide staining. The series is classed as functional, cell-based.
The test system of series [23] is MGC-803. Nature of the series: Induction of apoptosis in human MGC803 cells assessed as cell budding at 10 uM after 48 hrs by acridine orange/ethidium bromide staining. The series is classed as functional, cell-based.

Turning to `C[C@H]1[C@H](C)CC[C@]2(C(=O)OCCN3CCN(C(=O)c4c(Cl)cccc4Cl)CC3)CC[C@]3(C)C(=CC[C@@H]4[C@@]5(C)CC[C@H](O)C(C)(C)[C@@H]5CC[C@]43C)[C@H]12`, the IC50 in the series on MGC-803 [1] is 2.5 µM; with Bcap37 [16], 9.24 µM. For the same compound, the result with MGC-803 [2], in the series with MGC-803 [3], in the series on MGC-803 [4], with MGC-803 [5], in the series on MGC-803 [8] and in the series on MGC-803 [11] was Active. Further, the outcome in the series on MGC-803 [12] and with MGC-803 [15] was Active. Also, the Activity result is “tde” with MGC-803 [6], 33.35% in the series with MGC-803 [7], 28.01% in the series on MGC-803 [13] and 23.57% in the series with MGC-803 [17]. In addition, the values for the inhibition of growth at 10 µM in the series on Bcap37 [9] and with MGC-803 [14] were 76% and 95.6%, respectively. Moreover, the inhibition at 72 h, 10 µM in [10] came to 32.1%.
With `CC[C@@]1(O)C(=O)OCc2c1cc1n(c2=O)Cc2cc3cc(O)ccc3nc2-1` [HYDROXYCAMPTOTHECIN], the IC50 in the series on MGC-803 [1] and with Bcap37 [16] was above 20 µM in each case. For the same compound, the Activity in the series with MGC-803 [7] was found to be 24.95%; with MGC-803 [13], 18.66%; in the series with MGC-803 [17] it was 17.37%. The result in the series with MGC-803 [18], in the series on MGC-803 [19] and in the series with MGC-803 [20] was Active. Further, the values for the inhibition of growth at 10 µM with Bcap37 [9] and with MGC-803 [14] were 28.1% and 29.1%, respectively. For the same compound, the inhibition at 72 h, 10 µM in [10] came out at 9.3%.
In the case of `C[C@H]1[C@H](C)CC[C@]2(C(=O)O)CC[C@]3(C)C(=CC[C@@H]4[C@@]5(C)CC[C@H](O)C(C)(C)[C@@H]5CC[C@]43C)[C@H]12` [URSOLIC ACID], the half-inhibitory concentration (IC50) in the series with MGC-803 [1] amounted to 24.3 µM; in the series on Bcap37 [16], 28.7 µM. Further, the result in the series with MGC-803 [21], with MGC-803 [22], in the series with MGC-803 [19], in the series with MGC-803 [20] and in the series with MGC-803 [23] was Active. Besides, the inhibition of growth at 10 µM in the series with Bcap37 [9] was found to be 11.9%; with MGC-803 [14], 28.9%. Moreover, the inhibition at 72 h, 10 µM in series [10] was found to be 14%.
For the compound `C[C@H]1[C@H](C)CC[C@]2(C(=O)OCCN3CCNCC3)CC[C@]3(C)C(=CC[C@@H]4[C@@]5(C)CC[C@H](O)C(C)(C)[C@@H]5CC[C@]43C)[C@H]12`, the IC50 in the series on MGC-803 [1] is 7.25 µM; in the series with Bcap37 [16], 7.5 µM. Moreover, the inhibition of growth at 10 µM was 84.4% in the series with Bcap37 [9] and 86.6% with MGC-803 [14]. Also, in series [10], the inhibition at 72 h, 10 µM worked out at 60.1%.
